Assay: gradient 5% acetonitrile 3 min, to 50% in 2 min, to 85% in 15 min, held 3 min, 100 µL/min
Settings: column: Zorbax Extend-C18 2.1 x 50 mm; eluents: water / acetonitrile, 0.1% formic acid
Procedure, shortened: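 Each retention time is based on an adduct peak selected computationally and verified by manual inspection. Measurements used HPLC–quadrupole time-of-flight mass spectrometry in positive and negative ionization mode on mixtures of ~100 pure standards. Chromatography ran on a Zorbax Extend-C18 column (2.1 × 50 mm, 1.8 μm) at 100 μL/min with water and acetonitrile, each containing 0.1% formic acid, and dead and dwell volumes of 40 μL and 900 μL.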

Row | Structure (SMILES) | RP-LC retention time [s]
1 | Cc1nc(CCNS(=O)(=O)c2ccc(Cl)c(C)c2)no1 | 812
2 | O=C(NC1CCCCC1)c1cc2ccccc2cc1O | 1180
3 | CC(C)C(=O)Nc1nc(-c2cccc3ccccc23)cs1 | 1020
4 | Cc1nccn1CCNC(=O)C(=O)Nc1ccc2c(c1)N(C(=O)C(C)C)CCC2 | 571
5 | COc1ccccc1-c1nc(Cn2nnc(-c3nc(-c4ccccc4Cl)no3)c2C)c(C)o1 | 1120
6 | CC(C)Cn1c(=O)c(C(=O)NCc2cccc(F)c2)nc2cccnc21 | 609
7 | COc1ccc(NC(=O)c2cnc(-c3ccc(OC)cc3)nc2-c2ccncc2)cc1 | 829
8 | Nc1ncnc(Nc2ccccc2Cl)c1[N+](=O)[O-] | 777
9 | COc1ccccc1-c1noc(C2CCCN2C(=O)CSc2ccncc2)n1 (stereo not drawn) | 611
10 | CCc1ccc(NC(=O)Cn2nc3cc(-c4ccccc4)nc(C)n3c2=O)cc1 | 899
11 | Fc1ccc(CN2CCC[C@H]2c2nc(C3CCOCC3)n[nH]2)c(Cl)c1 | 586
12 | Nc1cc(C2CCN(C(=O)Nc3ccc(F)cc3F)CC2)no1 | 666
13 | Cc1cc(Cl)ccc1NS(=O)(=O)c1cc(-c2cc(C(F)(F)F)on2)sc1C | 1260
14 | COc1ccc(N2C=C(C(=O)N3CCOCC3)S(=O)(=O)c3ccc(Cl)cc32)cc1Cl | 886
15 | COc1ccc(NC(=O)c2c(C)oc3c2C2=NCCN2C=N3)cc1Cl | 625
16 | COc1ccc(NC(=O)N2CCC(CC(=O)N3CCCCC3)CC2)cc1 | 706
17 | CCCCC(=O)Nc1ncn[nH]1 | 568
18 | O=C(NC1CC1)[C@@H]1C[C@H](Oc2ccccc2)CN1C(=O)c1ccc2ncccc2c1 | 649
19 | CNc1nc(Nc2cccc(OC)c2)nc2ccccc12 | 650

Row | Structure (SMILES) | RP-LC retention time [s]
20 | O=C(c1nnn(-c2ccc(Cl)cc2)c1-c1cccnc1)N1CCSCC1 | 780
21 | COc1ccc(NC(=O)N2CCc3nc(-c4ccc(F)cc4)ncc3C2)cc1 | 906
22 | COCC(=O)N1CCC2(CC1)NCc1ccccc1-n1ccnc12 | 548
23 | Cc1nc(-c2ccc(C(=O)NCc3ccc4c(c3)OCO4)cc2)cs1 | 844
24 | N#CCN(c1ccc2c(c1)OCCO2)S(=O)(=O)c1ccc2nncn2c1 | 690
25 | O=C1NCN(c2ccccc2)C12CCN(CC1COc3ccccc3O1)CC2 (stereo not drawn) | 736
26 | COc1ccc(Cl)cc1S(=O)(=O)N1CCC(CN2CCCCC2)CC1 | 584
27 | CCN(CC)C(=O)c1ccc2c(c1)N(CC(=O)N1CCN(c3ccccn3)CC1)C(=O)CS2 | 598
28 | Cc1nnc2n1CCN(C(=O)c1ccc(OC(F)(F)F)cc1)C2 | 606
29 | CCOC(=O)C1=C(C)N(CC(=O)NC(C)CC)c2ncnn2C1c1ccc(C)cc1 (stereo not drawn) | 910
30 | Cc1cc2nn(CC(=O)NCc3ccccc3)c(=O)n2c(Nc2ccccc2C)n1 | 990
31 | COc1cc(C(=O)N2CCC3(CC2)NC(=O)c2cc(C)ccc2N3C)cc(OC)c1OC | 730
32 | Cc1ccc(-n2nc(OC(C)C(=O)NCc3ccco3)ccc2=O)cc1C (stereo not drawn) | 748
33 | Cc1cc(N(C)C)nc(N2CCN(S(=O)(=O)c3cc(C)c(C)cc3C)CC2)n1 | 793
34 | CCC(=O)N1c2ccc(S(=O)(=O)N3CCCCC3)cc2CC1C(=O)NCc1ccc(N(C)C)cc1 (stereo not drawn) | 691
35 | COc1ccc(CCC(=O)N2CCC3(C2)C(=O)N(C)c2ccc(OC)cc23)cc1 (stereo not drawn) | 800
36 | CCC(C)C1Nc2ccc(C(=O)NCCCOC)cc2NC1=O (stereo not drawn) | 653
37 | CCc1ccc(CNc2nc3ccncc3n(CC)c2=O)cc1 | 701
38 | CC1=C(c2ccc(C)cc2)S(=O)(=O)N=C1N1CCCN(C(=O)CC(C)(C)C)CC1 | 888

The remaining lines, values ahead:

Row | RP-LC retention time [s] | Structure (SMILES)
39 | 752 | Cc1cc(C2CCCN2C(=O)NC(C)(C)C)no1 (stereo not drawn)
40 | 593 | NC(=O)C1CCN(c2ccc3cccc(OCc4ccccc4Cl)c3n2)CC1
41 | 981 | Brc1ccc(OCc2nc3c4ccccc4ncn3n2)cc1
42 | 1040 | COC(=O)c1cc(OC)c(OC)cc1NC(=O)C1Oc2ccccc2OC1C (stereo not drawn)
43 | 914 | CCc1noc(NC(C)=O)c1-c1ccc(C)c(S(=O)(=O)NCc2ccccc2Cl)c1
44 | 668 | CC(=O)c1cccc(NC(=O)C2CC(=O)N(c3ccc4c(c3)CCN4C(C)=O)C2)c1 (stereo not drawn)
45 | 1300 | CCCN1C(=O)COc2ccc(-c3noc(-c4cccc(N(C)C)c4)n3)cc21
46 | 624 | CCc1ccc2[nH]c3c(c(=O)c2c1)CN(CC(=O)NCc1ccc2c(c1)OCO2)CC3
47 | 872 | COc1ccc(CCC(=O)N2CCC3(C2)C(=O)N(C)c2ccccc23)cc1 (stereo not drawn)
48 | 898 | CCCc1nnsc1C(=O)N1CC(c2nc(Cc3ccccc3OC)no2)C1
49 | 855 | Cc1cc(C)c(C(=O)N2CCCC(C(=O)NCc3cccc(Br)c3)C2)[nH]1 (stereo not drawn)
50 | 922 | CCOC(=O)c1ccccc1NC(=O)N1CCC2(CC1)NC(=O)c1ccccc1O2
51 | 995 | Cc1ccc(NC(=O)N2CCCC(C)(C(=O)NCc3ccccc3)C2)cc1Cl (stereo not drawn)
52 | 1120 | CCOC(=O)c1ccccc1NC(=O)c1c2c(cn(-c3ccccc3)c1=O)C(=O)CC(C)(C)C2
53 | 773 | CCC(=O)N1CCc2sc(S(=O)(=O)NCc3ccc4c(c3)OCO4)cc2C1
54 | 746 | COc1ccc(-c2cc3c(=O)n(CC(=O)N4CCCC4)ncn3n2)cc1
55 | 771 | CCOC(=O)N1CCC(NC(=O)Cc2csc(Nc3cccc(Cl)c3)n2)CC1
56 | 588 | NC(=O)C1(N2CCCCC2)CCN(c2ncc(S(=O)(=O)c3ccccc3)c(N)n2)CC1
57 | 960 | CCn1c(=O)c2ccccc2n(Cc2nc(-c3ccc4c(c3)OCO4)no2)c1=O
58 | 879 | Cc1ccc(C)c(NC(=O)CCc2cccc3[nH]ccc23)c1
59 | 608 | CCN(CC)CCCNC(=O)c1ccc2c(c1)N(C)C(=O)C1CCCCN21 (stereo not drawn)
60 | 946 | COc1cccc(-c2noc(C3CCCN3C(=O)Nc3ccc(OC)c(F)c3)n2)c1 (stereo not drawn)
61 | 585 | O=C1N=C(N2CCN(Cc3ccc(F)cc3)CC2)S/C1=C\c1cccc(O)c1
62 | 788 | O=C(NCc1cc(-c2ccc3c(c2)OCCO3)on1)c1ccc2nsnc2c1
63 | 1140 | CCN1C(=O)COc2ccc(-c3noc(-c4ccccc4)n3)cc21

Row | RP-LC retention time [s] | Structure (SMILES)
64 | 626 | Cc1nc(-c2cccnc2)nc2c1CCC(=O)N2CC1CCCO1 (stereo not drawn)
65 | 709 | COc1cccc(N2CCN(C(=O)C3CCN(C(=O)C4Sc5ccccc5NC4=O)CC3)CC2)c1 (stereo not drawn)
66 | 691 | O=C(c1cccs1)N1CCN(c2nnc3ccc(Cl)cn23)CC1
67 | 668 | CCCNC(=O)C1CCCN(c2ccc(SCC(=O)Nc3ccc(F)cc3)nn2)C1 (stereo not drawn)
68 | 919 | CN1c2cc(F)ccc2C(=O)NC12CCN(C(=O)Cc1ccc(Cl)cc1)CC2
69 | 834 | COc1ccc(F)cc1S(=O)(=O)N1C[C@@H]2C[C@H]1C[C@@H]2NC(=O)c1cccs1
70 | 673 | O=C(NCC1CCCO1)C1COC2(CCN(C(=O)c3ccccc3F)CC2)N1C(=O)c1ccccc1 (stereo not drawn)
71 | 868 | CCc1ccc(CN2C(=O)CN(S(C)(=O)=O)CC2(C)C(=O)NCc2ccccc2)cc1 (stereo not drawn)
72 | 987 | CC(=O)N1CCC(c2nc(-c3ccc4oc(-c5ccccc5)nc4c3)no2)CC1
73 | 1100 | COc1ccc(-c2nc(Cn3ccn4nc(-c5ccccc5OC)cc4c3=O)c(C)o2)cc1
74 | 857 | Cc1noc(-c2ccc(OC3CN(C(=O)Cc4cccs4)C3)cc2)n1
75 | 573 | CCN(CC)CCNC(=O)C1CCN(c2nc3cccnc3s2)CC1
76 | 826 | CCC(C(=O)NCCOC)n1nc(C)c2sc3ccccc3c2c1=O (stereo not drawn)
77 | 837 | Cc1cc2c(c(=O)n(-c3ccc(F)cc3)c(=O)n2CC(=O)Nc2ccccc2F)n1C
78 | 681 | O=C(CN1C(=O)c2ccccc2C1=O)N1CCCN(c2nc3ncccc3o2)CC1
79 | 562 | CCOC(=O)c1cnc2c(C)c(Cl)ccc2c1NCCN(C)C
80 | 748 | O=C(N[C@H]1C[C@@H]2C[C@H]1N(C(=O)c1cccc(Cl)c1)C2)c1ccccc1
81 | 841 | CC(C)NC(=O)c1ccc(OCC2CCCN(C(=O)c3c(F)cccc3F)C2)cc1 (stereo not drawn)
82 | 750 | CCOc1ccc(-n2cc(C(=O)OCc3ccccn3)c3ccccc3c2=O)cc1
83 | 663 | COc1ccc(NC(=O)C2CCN(S(=O)(=O)c3ccc4[nH]c(=O)ccc4c3)CC2)c(OC)c1
84 | 1030 | CN(Cc1ccccc1)C(=O)CSc1nnc(-c2ccc(Cl)cc2)o1
85 | 740 | Cc1nc2nc(-c3ccccc3)nn2c(C)c1CC(=O)N(CCO)Cc1ccccc1
86 | 669 | Cc1cccc(NC(=O)NC2CCN(C(=O)N3C[C@@H]4C[C@H](C3)[C@H]3CCCC(=O)N3C4)CC2)c1
87 | 898 | COc1ccccc1NC(=O)N1CCCC(C)(C(=O)NCc2ccc(C)cc2)C1 (stereo not drawn)
88 | 798 | Cc1nnc(-c2ccc3ccn(CC(=O)Nc4cccc(C#N)c4)c3c2)o1

From the METLIN SMRT retention time set (Domingo-Almenara et al. 2019)
